According to patent US20060089329A1, “Ready-to-use gemcitabine solution concentrates” (priority 2004, published 2006):
≈ marks a conversion by molar mass, not a printed value. Structures can show the parent of a compound that is named as a salt. Where two headings read alike, the source gives them in different places.

Assays:
[1] = Maximum solubility of gemcitabine hydrochloride at 66 vol. % ethyl alcohol after dissolving at 35-45° C. (Example 4); type: physicochemical; details: dissolved at 35-45° C. for 6 hours, cooled, stored 24 hours at 19-23° C.
Procedure: The maximum solubility of gemcitabine hydrochloride was determined with further use of 1N sodium hydroxide, water for injection and absolute ethyl alcohol in a proportion of 66 percent by volume recognized as optimum for that purpose, at increased solution temperatures (35-45° C. for 6 hours under agitation) and subsequent cooling to room temperature (19-23° C.), and then stored for 24 hours at 19-23° C.

[2] = Saturation concentration of gemcitabine in aqueous ethyl alcohol solutions (Example 3); type: physicochemical; details: interpolation (polynomial of the 6th degree), about 66 percent by volume of ethyl alcohol, pH 10±0.5
Procedure: In order to determine the saturation concentration of gemcitabine in aqueous ethyl alcohol solutions, gemcitabine solutions with various volume percentages of ethyl alcohol were prepared and analyzed.
Gemcitabine hydrochloride was placed beforehand in the mixing vessel, reacted with a stoichiometric amount of alkalizer (1N sodium hydroxide) dissolved in water, then treated each time with 80% of the required amounts of water for injection as determined in preliminary tests as well as with the amounts of ethyl alcohol required each time.
The components contained in the batch were subsequently dissolved at room temperature (19-23° C.) while agitating for 6 hours such that an undissolved sediment of gemcitabine hydrochloride remained in the mixing vessel. The pH of the batch was determined potentiometrically and, when required, adjusted to a pH of 10 with 1N sodium hydroxide or 1N hydrochloric acid, so as to achieve at this pH a complete conversion of the gemcitabine hydrochloride to the dissolved gemcitabine base.
The batch was stored for 24 hours at 19-23° C. […] These batches were then filtered until free of particles, and the gemcitabine content was determined by HPLC.

[3] = cited from earlier work

Compound	content in particle-free supernatant (maximum solubility) ([1]; hydrochloride)	maximum gemcitabine solubility ([2]; hydrochloride)	solubility in water ([3]; pH of 5)	solubility in water ([3]; pH of 7)	solubility in water ([3]; pH of 9)	solubility in water ([3]; pH range of 2.7 to 3.3)	solubility at 6 h ([1]; aqueous ethyl alcohol solution, aqueous with cosolvent or surfactant or cyclodextrin, thermodynamic from solid, read-out: content in particle-free supernatant (maximum solubility))	solubility at 6 h ([2]; aqueous ethyl alcohol solution, 21 °C, pH 10, aqueous with cosolvent or surfactant or cyclodextrin, thermodynamic from solid, read-out: maximum gemcitabine solubility)
Nc1ccn([C@@H]2O[C@H](CO)[C@@H](O)C2(F)F)c(=O)n1 [gemcitabine hydrochloride]	108.3 mg/mL	55 mg/mL	–	–	–	–	–	–
Nc1ccn([C@@H]2O[C@H](CO)[C@@H](O)C2(F)F)c(=O)n1 [gemcitabine, 2′-deoxy-2′,2′-difluorocytidine]	–	–	16.0 mg/mL (≈ 60.8 mM)	15.3 mg/mL (≈ 58.1 mM)	15.8 mg/mL (≈ 60 mM)	about 38 mg/ml	95.1 mg/mL (≈ 361 mM)	50 mg/mL (≈ 190 mM)
